Test results from US20120135081A1, “HYDROPHOBINS FOR DISPERSING ACTIVE AGENTS” (TEKNOLOGIAN TUTKIMUSKESKUS VTT, priority 2009, published 2012).

Test: Particle size and morphology by transmission electron microscopy (TEM)
Assay type: physicochemical
Description: Precipitation of beclomethasone was carried out by modifying a method published earlier, where the drug was crystallised either in pure water or in the presence of a surfactant, Tween-80 (Wang et al. 2007^xi, Matteucci et al., 2006^xii). 34.8 mM beclomethasone dipropionate (BDB, MW 521.1) solution was prepared by dissolving the BDP in methanol. 0.5 ml of BDP solution was poured into 20 ml of pure deionized water with 0-0.15 wt-% (0-208.3 μM) HFBII. The resulting aqueous solution had 0.05 wt-% BDP. Both solutions were filtered with 0.2 μm syringe filter to remove possible impurities prior to use. The receiving liquid was stirred vigorously with a magnetic stirrer and temperature of the solution was controlled by keeping the sample in an ice bath or in room temperature during the precipitation. The precipitate was observed as a turbid solution immediately after BDP addition.
Transmission electron microscopy (TEM): 20 min after precipitation 20 μl of the nanoparticle dispersions were dried on formvar film-coated copper grids with mesh size 300.
The synthesis was done as in the earlier section, except that the drug used was itraconazole. Mass ratios of 2:1, 1:1 and 1:2 of HFBII:itraconazole were tested. TEM was used to study the size and morphology of the particles. […] Monodispersity increased with increasing HFBII amount. […]

With `CCC(=O)OCC(=O)[C@@]1(OC(=O)CC)[C@@H](C)C[C@H]2[C@@H]3CCC4=CC(=O)C=C[C@]4(C)[C@@]3(Cl)[C@@H](O)C[C@@]21C` [BDP, beclomethasone dipropionate] the “crystals formed (size and habit)” value (precipitated from methanol into water without HFBII) was “a few micrometer long needles” and the particle size (precipitated with HFBII at room temperature, TEM) was “several micrometers”.
